19 compounds from US8563000B2, “Melanocortin receptor ligands modified with hydantoin” (Ipsen Pharma S.A.S., priority 2007, dated 2013) can be followed below.

In experiment [1] the target is T1, hMC3 (Homo sapiens, UniProt P41968).
T1 construct: expressed in transfected cells; host or cells: CHO-K1
In words: Cyclic AMP bioassay (ECL), CHO-K1 cells expressing hMC3. Format: cell-based. The conditions noted are these: intracellular cAMP.
Experimental: (§3) Intracellular cyclic AMP (cAMP) levels were determined by an electrochemiluminescence (ECL) assay (Meso Scale Discovery®, Gaithersburg, Md.; referred to hereinafter as “MSD”). […] Transgenic CHO-K1 cells stably expressing hMC receptor subtypes 1, 3, 4 or 5 were dispensed at a density of approximately 7,000 cells/well in 384-well Multi-Array® plates (MSD) containing integrated carbon electrodes and coated with anti-cAMP antibody. Increasing concentrations of the test compounds were added and the cells were incubated for approximately 40 minutes at approximately 37° C. […] At the end of the second incubation period read buffer (Tris-buffered solution containing an ECL co-reactant and Triton X-100 at ph 7.8) was added and the cAMP levels in the cell lysates were immediately determined by ECL detection with a Sector Imager 6000 Reader® (MSD). Data was analyzed using a computer-assisted non-linear regression analysis (XL fit; IDBS) and reported as either an EC50 value or a Kb value.

The target in experiment [2] is T2, hMC5 (Homo sapiens, UniProt P33032).
T2 construct: expressed in transfected cells; host or cells: CHO-K1
T2 sequence (P33032 whole entry): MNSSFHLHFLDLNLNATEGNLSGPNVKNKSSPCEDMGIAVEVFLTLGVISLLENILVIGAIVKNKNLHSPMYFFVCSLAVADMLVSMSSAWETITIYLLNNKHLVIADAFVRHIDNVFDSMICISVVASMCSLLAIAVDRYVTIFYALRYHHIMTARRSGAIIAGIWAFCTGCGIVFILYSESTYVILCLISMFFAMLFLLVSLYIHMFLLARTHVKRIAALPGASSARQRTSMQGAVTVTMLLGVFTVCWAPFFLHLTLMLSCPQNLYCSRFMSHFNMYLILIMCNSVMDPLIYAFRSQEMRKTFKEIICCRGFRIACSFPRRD
The experiment in a line: Cyclic AMP bioassay (ECL), CHO-K1 cells expressing hMC5. Particulars: intracellular cAMP. Format: cell-based.
Experimental: as §3

Experiment [3] concerns the target T3, hMC4 (Homo sapiens, UniProt P32245).
T3 construct: expressed in transfected cells; host or cells: CHO-K1
In words: Cyclic AMP bioassay (ECL), CHO-K1 cells expressing hMC4. The format is cell-based. Particulars: intracellular cAMP.
Experimental: as §3

Experiment [4] has as its target T4, hMC1 (Homo sapiens, UniProt Q01726).
T4 construct: expressed in transfected cells; host or cells: CHO-K1
The experiment in a line: Cyclic AMP bioassay (ECL), CHO-K1 cells expressing hMC1. The format is cell-based. The conditions noted are these: intracellular cAMP.
Experimental: as §3

In experiment [5] the target is T4, hMC1. The experiment in a line: Radioligand binding assay, [125I]-NDP-α-MSH, CHO-K1 membranes. As for the experimental part: (§1) Cellular membranes used for the in vitro receptor binding assays were obtained from transgenic CHO-K1 cells stably expressing hMC-R receptor subtypes 1, 3, 4 or 5. […] The pellets were re-suspended in the same buffer and centrifuged at 50,000 g for 10 minutes at approximately 4° C. The washed pellets containing the cellular membranes were stored at approximately −80° C.
(§2) Filters were washed three times with 50 mM Tris-HCl at pH 7.4 at a temperature of approximately 0-4° C. and then assayed for radioactivity using a Packard Topcount® scintillation counter. Binding data were analyzed by computer-assisted non-linear regression analysis (XL fit; IDBS).

Experiment [6] has as its target T2, hMC5. The experiment is described as above. As for the experimental part:
as §1, §2

In experiment [7] the target is T3, hMC4. Described as above. As for the experimental part: as §1, §2
Experiment [8] addresses T1, hMC3. Described as above. As for the experimental part:
as §1, §2

T1 sequence (P41968 whole entry): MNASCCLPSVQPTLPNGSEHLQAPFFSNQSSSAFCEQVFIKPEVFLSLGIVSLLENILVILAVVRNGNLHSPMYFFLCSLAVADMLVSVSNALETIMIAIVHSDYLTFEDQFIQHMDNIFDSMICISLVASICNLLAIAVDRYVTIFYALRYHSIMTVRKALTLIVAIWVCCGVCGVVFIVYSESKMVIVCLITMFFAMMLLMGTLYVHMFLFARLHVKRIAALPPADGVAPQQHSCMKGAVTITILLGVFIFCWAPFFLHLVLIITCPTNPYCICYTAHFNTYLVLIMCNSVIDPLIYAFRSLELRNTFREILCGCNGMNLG
T4 sequence (Q01726 whole entry): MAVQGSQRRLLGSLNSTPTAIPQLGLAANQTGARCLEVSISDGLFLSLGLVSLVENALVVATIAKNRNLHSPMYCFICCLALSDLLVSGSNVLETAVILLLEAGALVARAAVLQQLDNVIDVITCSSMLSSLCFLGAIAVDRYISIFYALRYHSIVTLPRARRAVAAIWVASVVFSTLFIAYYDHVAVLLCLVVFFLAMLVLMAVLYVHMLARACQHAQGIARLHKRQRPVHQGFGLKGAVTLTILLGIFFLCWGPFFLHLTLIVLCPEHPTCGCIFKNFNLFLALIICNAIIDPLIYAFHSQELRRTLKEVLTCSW
T3 sequence (P32245 whole entry): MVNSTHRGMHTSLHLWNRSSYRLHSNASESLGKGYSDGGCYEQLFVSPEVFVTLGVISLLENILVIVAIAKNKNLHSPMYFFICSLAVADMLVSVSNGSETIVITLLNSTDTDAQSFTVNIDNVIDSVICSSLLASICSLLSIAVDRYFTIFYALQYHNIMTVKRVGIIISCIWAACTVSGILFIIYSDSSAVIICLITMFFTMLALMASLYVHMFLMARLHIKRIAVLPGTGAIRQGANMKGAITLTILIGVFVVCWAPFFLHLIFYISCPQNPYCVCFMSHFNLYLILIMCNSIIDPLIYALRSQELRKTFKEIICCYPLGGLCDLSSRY

As a reminder, the EC50 is the midpoint of the concentration-response curve. Low values mean an effect from little substance, high ones a need for much substance. Regarding `C[C@H]1NC(=O)[C@@H](NC(=O)CN2C(=O)N[C@H](C)C2=O)CSSC[C@@H](C(N)=O)NC(=O)[C@H](Cc2c[nH]c3ccccc23)NC(=O)[C@H](CCCNC(=N)N)NC(=O)[C@@H](Cc2ccccc2)NC(=O)[C@H](Cc2cnc[nH]2)NC1=O` [Hydantoin(C(O)-(D-Ala-Gly))-cyclo(Cys-D-Ala-His-D-Phe-Arg-Trp-Cys)-NH2], the EC50 in experiment [1] was 2.22 nM; in experiment [2], 355 nM; in experiment [3], 0.309 nM; in experiment [4], 4.7 nM.

As for `CCCC[C@@H](C(=O)N[C@H]1CSSC[C@@H](C(N)=O)NC(=O)[C@H](Cc2c[nH]c3ccccc23)NC(=O)[C@H](CCCNC(=N)N)NC(=O)[C@@H](Cc2ccccc2)NC(=O)[C@H](Cc2cnc[nH]2)NC(=O)[C@@H](C)NC1=O)N1C(=O)N[C@H](C)C1=O` [Hydantoin(C(O)-(D-Ala-Nle))-cyclo(Cys-D-Ala-His-D-Phe-Arg-Trp-Cys)-NH2], the EC50 in experiment [1] was 2.56 nM; in experiment [3] it was 1.47 nM.

Take `C[C@H]1NC(=O)[C@@H](NC(=O)CN2C(=O)N[C@H](CCCNC(=N)N)C2=O)CSSC[C@@H](C(N)=O)NC(=O)[C@H](Cc2c[nH]c3ccccc23)NC(=O)[C@H](CCCNC(=N)N)NC(=O)[C@@H](Cc2ccccc2)NC(=O)[C@H](Cc2cnc[nH]2)NC1=O` [Hydantoin(C(O)-(D-Arg-Gly))-cyclo(Cys-D-Ala-His-D-Phe-Arg-Trp-Cys)-NH2]: the half-maximal effective concentration (EC50) in experiment [1] was determined as 23.2 nM; in experiment [2] it was 3950 nM; in experiment [3], 0.513 nM; in experiment [4], 11.5 nM.

As a reminder, the Ki is the equilibrium dissociation constant of an inhibitor or competing ligand from its target. Low values mean a stronger hold on the target, high ones a looser hold on the target. In the case of `N=C(N)NCCC[C@@H]1NC(=O)[C@@H](Cc2ccccc2)NC(=O)[C@H](Cc2cnc[nH]2)NC(=O)[C@H](CCC(=O)O)NC(=O)[C@@H](NC(=O)CN2C(=O)N[C@H](CCCNC(=N)N)C2=O)CSSC[C@@H](C(N)=O)NC(=O)[C@H](Cc2c[nH]c3ccccc23)NC1=O` [Hydantoin(C(O)-(D-Arg-Gly))-cyclo(Cys-Glu-His-D-Phe-Arg-Trp-Cys)-NH2], the EC50 in experiment [1] turned out to be 17.1 nM; in experiment [2], 2710 nM; in experiment [3], 0.16 nM; in experiment [4], 18 nM. In addition, the Ki in experiment [5] is 9.49 nM; in experiment [6] it was 2260 nM; in experiment [7], 2.95 nM; in experiment [8], 124 nM.

As for `C[C@H]1NC(=O)[C@@H](NC(=O)[C@@H](CCCNC(=N)N)N2C(=O)CNC2=O)CSSC[C@@H](C(N)=O)NC(=O)[C@H](Cc2c[nH]c3ccccc23)NC(=O)[C@H](CCCNC(=N)N)NC(=O)[C@@H](Cc2ccccc2)NC(=O)[C@H](Cc2cnc[nH]2)NC1=O` [Hydantoin(C(O)-(Gly-D-Arg))-cyclo(Cys-D-Ala-His-D-Phe-Arg-Trp-Cys)-NH2], the EC50 in experiment [1] is 11.6 nM; in experiment [2] it was 9840 nM; in experiment [3], 0.435 nM; in experiment [4], 7.53 nM.

On to `N=C(N)NCCC[C@@H]1NC(=O)[C@@H](Cc2ccccc2)NC(=O)[C@H](Cc2cnc[nH]2)NC(=O)[C@H](CCC(=O)O)NC(=O)[C@@H](NC(=O)CN2C(=O)CNC2=O)CSSC[C@@H](C(N)=O)NC(=O)[C@H](Cc2c[nH]c3ccccc23)NC1=O` [Hydantoin(C(O)-(Gly-Gly))-cyclo(Cys-Glu-His-D-Phe-Arg-Trp-Cys)-NH2], for which the EC50 in experiment [2] is greater than 10000 nM.

The compound `CCCC[C@@H]1NC(=O)N(CC(=O)N[C@H]2CSSC[C@@H](C(N)=O)NC(=O)[C@H](Cc3c[nH]c4ccccc34)NC(=O)[C@H](CCCNC(=N)N)NC(=O)[C@@H](Cc3ccccc3)NC(=O)[C@H](Cc3cnc[nH]3)NC(=O)[C@H](CCC(=O)O)NC2=O)C1=O` [Hydantoin(C(O)-(Nle-Gly))-cyclo(Cys-Glu-His-D-Phe-Arg-Trp-Cys)-NH2] gave a concentration giving a half-maximal response (EC50) in experiment [2] greater than 10000 nM.

On to `N=C(N)NCCC[C@@H]1NC(=O)[C@@H](Cc2ccc3ccccc3c2)NC(=O)C2(CC2)N2C(=O)N[C@@H](CC(=O)NCCCC[C@@H](C(N)=O)NC(=O)[C@H](Cc3c[nH]c4ccccc34)NC1=O)C2=O` [cyclo[Hydantoin(C(O)-(Asp-A3c))-D-2-Nal-Arg-Trp-Lys]-NH2], for which the Ki in experiment [5] was 7570 nM; in experiment [6] it was 2880 nM; in experiment [7], 420 nM; in experiment [8] it was 1920 nM.

As for `N=C(N)NCCC[C@@H]1NC(=O)[C@@H](Cc2ccc3ccccc3c2)NC(=O)C2(CCCC2)N2C(=O)N[C@@H](CC(=O)NCCCC[C@@H](C(N)=O)NC(=O)[C@H](Cc3c[nH]c4ccccc34)NC1=O)C2=O` [cyclo[Hydantoin(C(O)-(Asp-A5c))-D-2-Nal-Arg-Trp-Lys]-NH2], the Ki was determined as 9940 nM in experiment [5] and 2390 nM in experiment [8].

Take `N=C(N)NCCC[C@@H]1NC(=O)[C@@H](Cc2ccc3ccccc3c2)NC(=O)C2(CCCCC2)N2C(=O)N[C@@H](CC(=O)NCCCC[C@@H](C(N)=O)NC(=O)[C@H](Cc3c[nH]c4ccccc34)NC1=O)C2=O` [cyclo[Hydantoin(C(O)-(Asp-A6c))-D-2-Nal-Arg-Trp-Lys]-NH2]: the inhibition constant Ki in experiment [5] is 2170 nM; in experiment [6] it was 451 nM; in experiment [7], 16.5 nM; in experiment [8] it was 1480 nM.

Take `N=C(N)NCCC[C@@H]1NC(=O)[C@@H](Cc2ccc3ccccc3c2)NC(=O)C2(Cc3ccccc3C2)N2C(=O)N[C@@H](CC(=O)NCCCC[C@@H](C(N)=O)NC(=O)[C@H](Cc3c[nH]c4ccccc34)NC1=O)C2=O` [cyclo[Hydantoin(C(O)-(Asp-Aic))-D-2-Nal-Arg-Trp-Lys]-NH2]: the Ki in experiment [5] came to 9030 nM; in experiment [6], 1160 nM; in experiment [7], 35.8 nM; in experiment [8], 2630 nM.

For the compound `N=C(N)NCCC[C@@H]1NC(=O)[C@@H](Cc2ccc3ccccc3c2)NC(=O)C2(CCNCC2)N2C(=O)N[C@@H](CC(=O)NCCCC[C@@H](C(N)=O)NC(=O)[C@H](Cc3c[nH]c4ccccc34)NC1=O)C2=O` [cyclo[Hydantoin(C(O)-(Asp-Apc))-D-2-Nal-Arg-Trp-Lys]-NH2], the Ki in experiment [5] is 1280 nM; in experiment [7], 266 nM; in experiment [8] it was 2760 nM.

Compound `C[C@@H]1C(=O)N[C@@H](Cc2cnc[nH]2)C(=O)N[C@H](Cc2ccccc2)C(=O)N[C@@H](CCCNC(=N)N)C(=O)N[C@@H](Cc2c[nH]c3ccccc23)C(=O)N[C@H](C(N)=O)CNC(=O)C[C@@H]2NC(=O)N1C2=O` [cyclo[Hydantoin(C(O)-(Asp-D-Ala))-His-D-Phe-Arg-Trp-Dap]-NH2] had a Ki in experiment [6] greater than 10000 nM.

The compound `N=C(N)NCCC[C@@H]1NC(=O)[C@@H](Cc2ccc3ccccc3c2)NC(=O)[C@H](Cc2cnc[nH]2)N2C(=O)N[C@@H](CC(=O)NCCCC[C@@H](C(N)=O)NC(=O)[C@H](Cc3c[nH]c4ccccc34)NC1=O)C2=O` [cyclo[Hydantoin(C(O)-(Asp-His))-D-2-Nal-Arg-Trp-Lys]-NH2] yielded a Ki in experiment [5] of 200 nM.

With `C[C@@H]1C(=O)N[C@@H](Cc2cnc[nH]2)C(=O)N[C@H](Cc2ccccc2)C(=O)N[C@@H](CCCNC(=N)N)C(=O)N[C@@H](Cc2c[nH]c3ccccc23)C(=O)N[C@H](C(N)=O)CNC(=O)CC[C@@H]2NC(=O)N1C2=O` [cyclo[Hydantoin(C(O)-(Glu-D-Ala))-His-D-Phe-Arg-Trp-Dap]-NH2], the values for the EC50 in experiment [1], in experiment [3] and in experiment [4] were 18.2 nM, 0.182 nM and 56.7 nM, respectively. For the same compound, the inhibition constant Ki in experiment [5] came to 16.4 nM; in experiment [7], 4.97 nM; in experiment [8] it was 863 nM.

With `C[C@@H]1C(=O)N[C@@H](Cc2cnc[nH]2)C(=O)N[C@H](Cc2ccccc2)C(=O)N[C@@H](CCCNC(=N)N)C(=O)N[C@@H](Cc2c[nH]c3ccccc23)C(=O)N[C@H](C(N)=O)CCCCNC(=O)CC[C@@H]2NC(=O)N1C2=O` [cyclo[Hydantoin(C(O)-(Glu-D-Ala))-His-D-Phe-Arg-Trp-Lys]-NH2], the concentration giving a half-maximal response (EC50) came to 22.3 nM in experiment [1] and 3.62 nM in experiment [3]. For the same compound, the inhibitory constant (Ki) came out at 72.6 nM in experiment [5], 45.2 nM in experiment [7] and 1920 nM in experiment [8].

For `C[C@@H]1C(=O)N[C@@H](Cc2cnc[nH]2)C(=O)N[C@H](Cc2ccccc2)C(=O)N[C@@H](CCCNC(=N)N)C(=O)N[C@@H](Cc2c[nH]c3ccccc23)C(=O)N[C@H](C(N)=O)CCCNC(=O)CC[C@@H]2NC(=O)N1C2=O` [cyclo[Hydantoin(C(O)-(Glu-D-Ala))-His-D-Phe-Arg-Trp-Orn]-NH2], the EC50 in experiment [1] amounted to 39.2 nM; in experiment [3], 4.94 nM. Besides, the Ki in experiment [5] turned out to be 60.4 nM; in experiment [7], 52.4 nM; in experiment [8], 2840 nM.

`N=C(N)NCCC[C@@H]1NC(=O)[C@@H](Cc2ccccc2)NC(=O)[C@H](Cc2cnc[nH]2)NC(=O)[C@H](CCC(=O)O)NC(=O)[C@@H](N2C(=O)CNC2=O)CSSC[C@@H](C(N)=O)NC(=O)[C@H](Cc2c[nH]c3ccccc23)NC1=O` [cyclo[Hydantoin(C(O)-(Gly-Cys))-Glu-His-D-Phe-Arg-Trp-Cys]-NH2]: the concentration for a half-maximal effect (EC50) in experiment [1] amounted to 21.8 nM; in experiment [2], 1780 nM; in experiment [3], 0.576 nM; in experiment [4], 14.5 nM.

Turning to `CC[C@H](C)[C@@H]1NC(=O)N([C@H]2CSSC[C@@H](C(N)=O)NC(=O)[C@H](Cc3c[nH]c4ccccc34)NC(=O)[C@H](CCCNC(=N)N)NC(=O)[C@@H](Cc3ccccc3)NC(=O)[C@H](Cc3cnc[nH]3)NC(=O)[C@@H](C)NC2=O)C1=O` [cyclo[Hydantoin(C(O)-(Ile-Cys))-D-Ala-His-D-Phe-Arg-Trp-Cys]-NH2], the Ki in experiment [6] was greater than 10000 nM.
